The values that follow come from patent publication US20230109801A1 (Blue Oak Pharmaceuticals, Inc., priority 2020, published 2023).

Each structure is given as a SMILES string. Structures can show the parent of a compound that is named as a salt.

This experiment concerns mice. Nature of the experiment: SmartCube in vivo neuropharmacological behavioral assay. The conditions noted are these: for minimal effective dose: Mus musculus, ip, dose having 50% or more total activity in SmartCube, i.p., read-out: MED (minimal effective dose); for AD: antidepressant, percent probability / AG: analgesic, percent probability / AP: antipsychotic, percent probability / AX: anxiolytic, percent probability / CE: cognitive enhancer, percent probability / HA: hallucinogenic, percent probability / MS: mood stabilizer, percent probability / PS, percent probability / SD: sedative hypnotic, percent probability / SE: side effects, percent probability / UN: uncharacterized CNS activity, percent probability / XG: anxiogenic, percent probability: SmartCube, i.p. 15 min before test, at the MED. An outline of the steps: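 Mice dosed i.p. with compound in Pharmasolve (NMP) 15 min before automated video capture of behavior; doses e.g. 0.3–30 mg/kg. Behavioral signature compared with reference-drug classes, giving per-class probability (0–100, 0 = LOQ); MED = lowest dose with ≥50% total activity.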

As to `CC(C)N1C2CCC1c1ccccc12` [Compound 42, 11-(Propan-2-yl)-11-azatricyclo[6.2.1.0^2,7]undeca-2,4,6-triene hydrochloride], the minimal effective dose was 10 to 30 mg/kg; the “AD: antidepressant, percent probability” value is recorded as “++ (5% ≤ X < 25%)”; the “AG: analgesic, percent probability” value is “++ (5% ≤ X < 25%)”; the “AP: antipsychotic, percent probability” value is “+ (LOQ ≤ X < 5%)”. For the same molecule, the “AX: anxiolytic, percent probability” value is recorded as “+ (LOQ ≤ X < 5%)”; the “CE: cognitive enhancer, percent probability” value was “+ (LOQ ≤ X < 5%)”; the “HA: hallucinogenic, percent probability” value was “++ (5% ≤ X < 25%)”; the “MS: mood stabilizer, percent probability” value is reported as “+ (LOQ ≤ X < 5%)”. The “PS, percent probability” value is “+++ (25% ≤ X < 50%)”; the “SD: sedative hypnotic, percent probability” value (shortened to “SD … percent probability”) is “+ (LOQ ≤ X < 5%)”; the “SE: side effects, percent probability” value is “+ (LOQ ≤ X < 5%)”; the “UN: uncharacterized CNS activity, percent probability” value (“UN … percent probability” below) is “++ (5% ≤ X < 25%)”. The “XG: anxiogenic, percent probability” value is recorded as “+ (LOQ ≤ X < 5%)”.
Turning to `CC(C)C(C)N1C2CCC1c1ccccc12` (stereo not drawn) [Compound 47, 11-(3-Methylbutan-2-yl)-11-azatricyclo[6.2.1.0^2,7]undeca-2,4,6-triene hydrochloride], the minimal effective dose lay within 10 to 30 mg/kg; the “AD: antidepressant, percent probability” value was “++++ (50% ≤ X <1 00%)”; the “AG: analgesic, percent probability” value is on record as “+ (LOQ ≤ X < 5%)”; the “AP: antipsychotic, percent probability” value is “+ (LOQ ≤ X < 5%)”. Besides, the “AX: anxiolytic, percent probability” value was “+ (LOQ ≤ X < 5%)”; the “CE: cognitive enhancer, percent probability” value is on record as “+ (LOQ ≤ X < 5%)”; the “HA: hallucinogenic, percent probability” value is listed as “+ (LOQ ≤ X < 5%)”; the “MS: mood stabilizer, percent probability” value is “+ (LOQ ≤ X < 5%)”. In addition, the “PS, percent probability” value is “+ (LOQ ≤ X < 5%)”; the “SD … percent probability” value is “+ (LOQ ≤ X < 5%)”; the “SE: side effects, percent probability” value is recorded as “+ (LOQ ≤ X < 5%)”; the “UN … percent probability” value is “++ (5% ≤ X < 25%)”. For the same molecule, the “XG: anxiogenic, percent probability” value is “+ (LOQ ≤ X < 5%)”.
As to `CCC(C)N1C2C=CC1c1ccccc12` (stereo not drawn) [Compound 55, 11-(Butan-2-yl)-11-azatricyclo[6.2.1.0^2,7]undeca-2,4,6,9-tetraene hydrochloride], the minimal effective dose was 10 to 30 mg/kg; the “AD: antidepressant, percent probability” value is listed as “+++ (25% ≤ X < 50%)”; the “AG: analgesic, percent probability” value is reported as “+ (LOQ ≤ X < 5%)”; the “AP: antipsychotic, percent probability” value is reported as “+ (LOQ ≤ X < 5%)”. Besides, the “AX: anxiolytic, percent probability” value was “++ (5% ≤ X < 25%)”; the “CE: cognitive enhancer, percent probability” value is “+ (LOQ ≤ X < 5%)”; the “HA: hallucinogenic, percent probability” value is “+ (LOQ ≤ X < 5%)”; the “MS: mood stabilizer, percent probability” value is on record as “+ (LOQ ≤ X < 5%)”. The “PS, percent probability” value is “++ (5% ≤ X < 25%)”; the “SD … percent probability” value is “+ (LOQ ≤ X < 5%)”; the “SE: side effects, percent probability” value is listed as “+ (LOQ ≤ X < 5%)”; the “UN … percent probability” value is “+++ (25% ≤ X < 50%)”. In addition, the “XG: anxiogenic, percent probability” value was “+ (LOQ ≤ X < 5%)”.
`CC1CC2NC1c1ccccc12` (stereo not drawn) [Compound 50, 9-Methyl-11-azatricyclo[6.2.1.0^2,7]undeca-2,4,6-triene hydrochloride]: the minimal effective dose lay in the range of 10 to 30 mg/kg; the “AD: antidepressant, percent probability” value was “++ (5% ≤ X < 25%)”; the “AG: analgesic, percent probability” value is given as “++ (5% ≤ X < 25%)”; the “AP: antipsychotic, percent probability” value is “+ (LOQ ≤ X < 5%)”. The “AX: anxiolytic, percent probability” value is listed as “+ (LOQ ≤ X < 5%)”; the “CE: cognitive enhancer, percent probability” value is reported as “++ (5% ≤ X < 25%)”; the “HA: hallucinogenic, percent probability” value was “+ (LOQ ≤ X < 5%)”; the “MS: mood stabilizer, percent probability” value is listed as “+ (LOQ ≤ X < 5%)”. The “PS, percent probability” value is recorded as “+ (LOQ ≤ X < 5%)”; the “SD … percent probability” value is reported as “+ (LOQ ≤ X < 5%)”; the “SE: side effects, percent probability” value is “+ (LOQ ≤ X < 5%)”; the “UN … percent probability” value is recorded as “+++ (25% ≤ X < 50%)”. Further, the “XG: anxiogenic, percent probability” value is “+ (LOQ ≤ X < 5%)”.
In the case of `CC(C)N1C2C=CC1c1ccccc12` [Compound 53, 11-(Propan-2-yl)-11-azatricyclo[6.2.1.0^2,7]undeca-2,4,6,9-tetraene hydrochloride], the minimal effective dose is 10 to 30 mg/kg; the “AD: antidepressant, percent probability” value is reported as “++ (5% ≤ X < 25%)”; the “AG: analgesic, percent probability” value was “++ (5% ≤ X < 25%)”; the “AP: antipsychotic, percent probability” value is on record as “+ (LOQ ≤ X < 5%)”. The “AX: anxiolytic, percent probability” value is given as “++ (5% ≤ X < 25%)”; the “CE: cognitive enhancer, percent probability” value is recorded as “+ (LOQ ≤ X < 5%)”; the “HA: hallucinogenic, percent probability” value is “+ (LOQ ≤ X < 5%)”; the “MS: mood stabilizer, percent probability” value was “+ (LOQ ≤ X < 5%)”. Also, the “PS, percent probability” value is “++ (5% ≤ X < 25%)”; the “SD … percent probability” value is “+ (LOQ ≤ X < 5%)”; the “SE: side effects, percent probability” value is recorded as “+ (LOQ ≤ X < 5%)”; the “UN … percent probability” value was “++ (5% ≤ X < 25%)”. Also, the “XG: anxiogenic, percent probability” value is on record as “+ (LOQ ≤ X < 5%)”.
Consider `CC(C)N1C2C=CC1c1cc(F)c(F)cc12` [Compound 6, 4,5-Difluoro-11-(propan-2-yl)-11-azatricyclo[6.2.1.0^2,7]undeca-2,4,6,9-tetraene hydrochloride], for which the minimal effective dose was over 30 mg/kg; the “AD: antidepressant, percent probability” value is on record as “++ (5% ≤ X < 25%)”; the “AG: analgesic, percent probability” value is listed as “++++ (50% ≤ X <1 00%)”; the “AP: antipsychotic, percent probability” value is given as “+ (LOQ ≤ X < 5%)”. The “AX: anxiolytic, percent probability” value was “+ (LOQ ≤ X < 5%)”; the “CE: cognitive enhancer, percent probability” value is “+ (LOQ ≤ X < 5%)”; the “HA: hallucinogenic, percent probability” value is “+ (LOQ ≤ X < 5%)”; the “MS: mood stabilizer, percent probability” value is reported as “+ (LOQ ≤ X < 5%)”. Besides, the “PS, percent probability” value is “++ (5% ≤ X < 25%)”; the “SD … percent probability” value is reported as “+ (LOQ ≤ X < 5%)”; the “SE: side effects, percent probability” value was “+ (LOQ ≤ X < 5%)”; the “UN … percent probability” value was “+ (LOQ ≤ X < 5%)”. Besides, the “XG: anxiogenic, percent probability” value is given as “+ (LOQ ≤ X < 5%)”.
For the molecule `CC(C)N1C2CCC1c1cc(F)c(F)cc12` [Compound 8, 4,5-difluoro-11-(propan-2-yl)-11-azatricyclo[6.2.1.0^2,7]undeca-2(7),3,5-triene hydrochloride], the minimal effective dose is 10 to 30 mg/kg; the “AD: antidepressant, percent probability” value is “+ (LOQ ≤ X < 5%)”; the “AG: analgesic, percent probability” value was “++ (5% ≤ X < 25%)”; the “AP: antipsychotic, percent probability” value is “+ (LOQ ≤ X < 5%)”. The “AX: anxiolytic, percent probability” value is “++ (5% ≤ X < 25%)”; the “CE: cognitive enhancer, percent probability” value is listed as “+ (LOQ ≤ X < 5%)”; the “HA: hallucinogenic, percent probability” value is recorded as “+ (LOQ ≤ X < 5%)”; the “MS: mood stabilizer, percent probability” value is “+ (LOQ ≤ X < 5%)”. Further, the “PS, percent probability” value was “+ (LOQ ≤ X < 5%)”; the “SD … percent probability” value is listed as “++ (5% ≤ X < 25%)”; the “SE: side effects, percent probability” value was “++++ (50% ≤ X <1 00%)”; the “UN … percent probability” value was “+ (LOQ ≤ X < 5%)”. Moreover, the “XG: anxiogenic, percent probability” value was “+ (LOQ ≤ X < 5%)”.
On to `CC[C@@H](C)N1C2CCC1c1ccccc12` [Compound 33, 11-[(2R)-Butan-2-yl]-11-azatricyclo[6.2.1.0^2,7]undeca-2,4,6-triene hydrochloride], for which the minimal effective dose was 1 to 10 mg/kg; the “AD: antidepressant, percent probability” value is “+ (LOQ ≤ X < 5%)”; the “AG: analgesic, percent probability” value is “+ (LOQ ≤ X < 5%)”; the “AP: antipsychotic, percent probability” value is recorded as “+ (LOQ ≤ X < 5%)”. Moreover, the “AX: anxiolytic, percent probability” value is given as “++ (5% ≤ X < 25%)”; the “CE: cognitive enhancer, percent probability” value is “+ (LOQ ≤ X < 5%)”; the “HA: hallucinogenic, percent probability” value is listed as “+ (LOQ ≤ X < 5%)”; the “MS: mood stabilizer, percent probability” value is reported as “+ (LOQ ≤ X < 5%)”. Moreover, the “PS, percent probability” value is “++ (5% ≤ X < 25%)”; the “SD … percent probability” value is “+ (LOQ ≤ X < 5%)”; the “SE: side effects, percent probability” value is recorded as “+ (LOQ ≤ X < 5%)”; the “UN … percent probability” value was “++++ (50% ≤ X <1 00%)”. Further, the “XG: anxiogenic, percent probability” value is given as “+ (LOQ ≤ X < 5%)”.
With `Cc1cccc2c1C1CCC2N1C(C)C` (stereo not drawn) [Compound 31, 3-Methyl-11-(propan-2-yl)-11-azatricyclo[6.2.1.0^2,7]undeca-2,4,6-triene hydrochloride], the minimal effective dose was in the range of 10 to 30 mg/kg; the “AD: antidepressant, percent probability” value was “++ (5% ≤ X < 25%)”; the “AG: analgesic, percent probability” value is given as “++ (5% ≤ X < 25%)”; the “AP: antipsychotic, percent probability” value is on record as “+ (LOQ ≤ X < 5%)”. Besides, the “AX: anxiolytic, percent probability” value is listed as “++ (5% ≤ X < 25%)”; the “CE: cognitive enhancer, percent probability” value is on record as “+ (LOQ ≤ X < 5%)”; the “HA: hallucinogenic, percent probability” value was “+ (LOQ ≤ X < 5%)”; the “MS: mood stabilizer, percent probability” value is given as “+ (LOQ ≤ X < 5%)”. Moreover, the “PS, percent probability” value is recorded as “+ (LOQ ≤ X < 5%)”; the “SD … percent probability” value is reported as “++ (5% ≤ X < 25%)”; the “SE: side effects, percent probability” value is on record as “+ (LOQ ≤ X < 5%)”; the “UN … percent probability” value is given as “+++ (25% ≤ X < 50%)”. Moreover, the “XG: anxiogenic, percent probability” value is on record as “+ (LOQ ≤ X < 5%)”.
